16 molecules from US5556909A, “Substituted 2-arylcarbonyloxymethyl-1,2,5-thiadiazolidin-3-one 1,1-dioxide derivatives and compositions and method of use thereof” (Sanofi Winthrop Inc., priority 1994, dated 1996) can be followed below.

SMILES strings stand for the structures. Where a name gives a salt, the structure may show the parent alone.

For orientation: Ki means a measure of affinity in units of concentration, obtained from inhibition or displacement. Read a low Ki as tighter binding.

In the assay the target is T1, human leukocyte elastase (Homo sapiens, UniProt P08246).
T1 sequence (P08246 30-267): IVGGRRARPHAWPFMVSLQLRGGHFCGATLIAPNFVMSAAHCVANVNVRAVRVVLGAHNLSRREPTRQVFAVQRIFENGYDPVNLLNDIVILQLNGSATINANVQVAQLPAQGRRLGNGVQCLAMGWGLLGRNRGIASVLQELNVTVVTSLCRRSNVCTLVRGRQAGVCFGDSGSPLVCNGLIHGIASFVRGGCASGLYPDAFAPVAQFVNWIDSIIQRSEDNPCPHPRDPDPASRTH
Nature of the assay: Human leukocyte elastase inhibitory activity (substrate MeOSuc-Ala-Ala-Pro-Val-pNA, microtiter plate progress curves). The assay is classed as biochemical. The note with it: HLE, pH 7.8, 25° C., 500 mM NaCl. The method, then: The test compound (inhibitor) is dissolved in DMSO in a vial to produce an inhibitor stock solution which has a concentration in the range of 200-1000 μM. The inhibitor stock solution is diluted (1:4, 1:16 and 1:64) into assay vials (vials 1, 2 and 3 respectively) containing 2.4 mL of buffer solution (50 mM N- [2-hydroxyethyl ] piperazine-N'-[2-ethanesulfonic acid]/NaOH, 500 mM NaCl, pH 7.8 at 25° C.) and DMSO is added so that the total volume in each vial is 3.2 mL. 70 μL, 50 μL, 35 μL and 25 μL of inhibitor from assay vial 1 is placed into the first four wells of a 96-well microtiter plate and each well is made up to 90 μL total volume with the addition of a 25% DMSO/buffer solution. The inhibitor from assay vials 2 and 3 is processed in a similar manner and placed in wells 5-12 respectively to afford a total of 12 different inhibitor concentrations. Four wells (wells 13-16) containing 90 μL of the 25% DMSO/buffer solution but no inhibitor are also run simultaneously with the inhibited wells as a control. 150 μL of substrate solution (prepared by the addition of 500 μL of the human leukocyte elastase (HLE) substrate MeOSuc-Ala-Ala-Pro-Val-pNA (18.7 mM in DMSO) to 19.5 mL of buffer solution) is then added simultaneously into each of the 16 wells and the solution in each well was thoroughly mixed.
The 96-well microtiter plate is placed into a Microplate Reader #89815A spectrophotometer and 110 μL of the enzyme solution (prepared as follows: a mixture of 20 mL of buffer solution and 20 mg of bovine serum albumen is gently vortexed in a scintillation vial and 5 μL HLE stock solution (1 mg/mL dissolved in deionized water) is added) is added simultaneously to each of the 16 wells. Each of the solutions in the wells is throughly mixed and then the time-dependent absorbance data is collected at an absorbance of 410 nm until the assay is complete. It should be noted that although this assay method can be done manually, it is preferred to perform the assay robotically using a Hewlett Packard MicroAssay System Robot.
A plot of the absorbance versus time data thus obtained affords progress curves the final slope of which is equal to the final steady-state velocities (VF). Using the program ENZFITTER (Elsevier software), the progress curves for the four control assays ([I]=0) are fit by linear regression to yield the enzyme reaction velocity values in the absences of inhibitor (Vo) which are averaged to produce a single fixed value. The inhibition constant Ki (nM) is then obtained from a plot of [formula] which affords a linear plot wherein: [formula] and [S] is the concentration of the substrate and Km is the Michaelis constant.
Table II summarizes the results obtained from the testing of representative compounds of the invention for human leukocyte elastase inhibitory activity.
As to `CCCC1NS(=O)(=O)N(COC(=O)c2c(Cl)cccc2Cl)C1=O` (stereo not shown) [1(f), 2-(2,6-dichlorophenylcarbonyloxymethyl)-4-propyl-1,2,5-thiadiazolidin-3-one 1,1-dioxide], the affinity corresponds to a Ki of 12 nM.
In the case of `CC(C)C1NS(=O)(=O)N(COC(=O)c2c(Cl)cccc2Cl)C1=O` (stereo not shown) [2(f), 2-(2,6-dichlorophenylcarbonyloxymethyl)-4-isopropyl-1,2,5-thiadiazolidin-3-one 1,1-dioxide] it was 350 nM.
In the case of `CCCC1C(=O)N(COC(=O)c2c(Cl)cccc2Cl)S(=O)(=O)N1C` (stereo not shown) [3(i), 2-(2,6-dichlorophenylcarbonyloxy-methyl)-4-propyl-5-methyl-1,2,5-thiadiazolidin-3-one 1,1-dioxide] it was 0.11 nM; in that of `CC(C)C1C(=O)N(COC(=O)c2c(Cl)cccc2Cl)S(=O)(=O)N1C` (stereo not shown) [4(f), 2-(2,6-dichlorophenylcarbonyloxymethyl)-4-isopropyl-5-methyl-1,2,5-thiadiazolidin-3-one 1,1-dioxide], 25 nM.
In turn, `CCCC1C(=O)N(COC(=O)c2c(Cl)cccc2Cl)S(=O)(=O)N1CC` (stereo not shown) [5(e), 2-(2,6-dichloro-phenylcarbonyloxymethyl)-4-propyl-5-ethyl-1,2,5-thiadiazolidin-3-one 1,1-dioxide] registered an inhibition constant (Ki) of 0.5 nM.
In the case of `CCCC1(C)C(=O)N(COC(=O)c2c(Cl)cccc2Cl)S(=O)(=O)N1C` (stereo not shown) [6(k), 2-(2,6-dichlorophenylcarbonyloxymethyl)-4-methyl-4-propyl-5-methyl-1,2,5-thiadiazolidin-3-one 1,1-dioxide], the Ki was 120 nM.
In the case of `CN1C(CCC(C)(C)Cl)C(=O)N(COC(=O)c2c(Cl)cccc2Cl)S1(=O)=O` (stereo not shown) [7(h), 2-(2,6-dichlorophenylcarbonyloxymethyl) -4-(3-methyl-3-chlorobutyl)-5-methyl-1,2,5-thiadiazolidin-3-one 1,1-dioxide] it was 4.4 nM; in that of `CC(C)CCC1C(=O)N(COC(=O)c2c(Cl)cccc2Cl)S(=O)(=O)N1C` (stereo not shown) [8(i)], 0.06 nM.
In the case of `CC(C)CCC1C(=O)N(COC(=O)c2c(Cl)ccc(OCCN3CCCC3)c2Cl)S(=O)(=O)N1C` (stereo not shown) [9(c), 2-(2,6-dichloro-3-(2-pyrrolidinoethoxy)phenylcarbonyloxymethyl)-4-(3-methylbutyl)-5-methyl-1,2,5-thiadiazolidin-3-one 1,1-dioxide hydrochloride] it was 0.26 nM; in that of `CC(C)CCC1C(=O)N(COC(=O)c2c(Cl)ccc(OCCN3CCOCC3)c2Cl)S(=O)(=O)N1C` (stereo not shown) [10(b), 2-(2,6-dichloro-3-[2-(4-morpholino)ethoxy]phenyl-carbonyloxymethyl)-4-(3-methylbutyl)-5-methyl-1,2,5-thiadiazolidin-3-one 1,1-dioxide], 0.2 nM.
In the case of `CN1C(Cc2ccccc2)C(=O)N(COC(=O)c2c(Cl)cccc2Cl)S1(=O)=O` (stereo not shown) [11(g), 2-(2,6-dichloro-phenylcarbonyloxymethyl)-4-phenylmethyl-5-methyl-1,2,5-thiadiazolidin-3-one 1,1-dioxide] it was 0.62 nM; in that of `O=C(OCN1C(=O)C2CCCCN2S1(=O)=O)c1c(Cl)cccc1Cl` (stereo not shown) [13(f), 2-(2,6-dichlorophenylcarbonyloxymethyl)-1,2,5-thiadiazolo [2,3-a]3,3a,4,5,6,7-hexahydropyridine-3-one 1:1-dioxide], 22 nM; in that of `O=C(OCN1C(=O)C2CCCN2S1(=O)=O)c1c(Cl)cccc1Cl` (stereo not shown) [14(f), 2-(2,6-dichlorophenylcarbonyloxymethyl) tetrahydropyrrolo[1,2-b]-1,2,5-thiadiazol-3(2H)-one 1,1-dioxide], 170 nM.
Turning to `O=C(OCN1C(=O)C2C3CCC(C3)N2S1(=O)=O)c1c(Cl)cccc1Cl` (stereo not shown) [15(i)], the affinity, expressed as Ki, was 3700 nM.
In the case of `CCCC1CCCN2C1C(=O)N(COC(=O)c1c(Cl)cccc1Cl)S2(=O)=O` (stereo not shown) [16(j), 2-(2,6-dichlorophenylcarbonyloxymethyl)-4-propyl-1,2,5-thiadiazolo [2,3-a]3,3a, 4,5,6,7-hexahydropyridine-3-one 1,1-dioxide] it was 9.6 nM; in that of `CCCC1C(=O)N(COC(=O)c2c(Cl)ccc(OCCN3CCOCC3)c2Cl)S(=O)(=O)N1CC` (stereo not shown) [Example 12, 2-(2,6-dichloro-3-[2-(4-morpholino]ethoxy]-phenylcarbonyloxymethyl)-4-propyl-5-ethyl-1,2,5-thiadiazolidin-3-one 1,1-dioxide methanesulfonate], 0.45 nM.
